Results published in PubChem BioAssay AID2060906 (Molecular Pharmacology Branch, DTP, NCI, 2025).
pIC50: −log10 of the molar value.

Test system: 485176-168-R4-J1-PDC complex spheroid growth
Assay: Anticancer human tumor 485176-168-R4-J1-PDC patient-derived pancreatic adenocarcinoma cell line growth inhibition [RAS]
Settings: for pIC50: curve of first compound; for viability, T/C: stronger effect = lower value; active means viability on the fitted dose curve at most 10% of control; inactive means the rest
In short: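 Tumour cells grown as complex spheroids with HUVEC endothelial cells and mesenchymal stem cells, treated with RAS pathway inhibitor combinations. Each agent spans half-log steps from near clinical Cmax, or 10 microM where Cmax is unknown.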

[1] = second compound 0.0316 µM, first compound 0.0316 µM
[2] = second compound 0.0316 µM, first compound 0.1 µM
[3] = second compound 0.0316 µM, first compound 0.316 µM
[4] = second compound 0.0316 µM, first compound 1 µM
[5] = second compound 0.1 µM, first compound 0.0316 µM
[6] = second compound 0.1 µM, first compound 0.1 µM
[7] = second compound 0.1 µM, first compound 0.316 µM
[8] = second compound 0.1 µM, first compound 1 µM
[9] = second compound 0.316 µM, first compound 0.0316 µM
[10] = second compound 0.316 µM, first compound 0.1 µM
[11] = second compound 0.316 µM, first compound 0.316 µM
[12] = second compound 0.316 µM, first compound 1 µM
[13] = second compound 1 µM, first compound 0.0316 µM
[14] = second compound 1 µM, first compound 0.1 µM
[15] = second compound 1 µM, first compound 0.316 µM
[16] = second compound 1 µM, first compound 1 µM
[17] = second compound 3.16 µM, first compound 0.0316 µM
[18] = second compound 3.16 µM, first compound 0.1 µM
[19] = second compound 3.16 µM, first compound 0.316 µM
[20] = second compound 3.16 µM, first compound 1 µM
[21] = second compound 10 µM, first compound 0.0316 µM
[22] = second compound 10 µM, first compound 0.1 µM
[23] = second compound 10 µM, first compound 0.316 µM
[24] = second compound 10 µM, first compound 1 µM
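Further: spheroids exposed to compounds for seven days before readout.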
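Wherever viability, T/C is given: luminescence viability expressed relative to DMSO vehicle wells set as 100%.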

O=C(c1ccc(F)c(F)c1Nc1ccc(I)cc1F)N1CC(O)([C@@H]2CCCCN2)C1 + C#Cc1c(F)ccc2cc(O)cc(-c3ncc4c(N5CC6CCC(C5)N6)nc(OCC56CCCN5CC(F)C6)nc4c3F)c12
inactive: viability, T/C (second compound 0.0316 µM, first compound 0.00316 µM) 80.3% | viability, T/C (second compound 0.0316 µM, first compound 0.01 µM) 79.3% | viability, T/C [1] 69.7% | viability, T/C [2] 72.4% | viability, T/C [3] 50.5% | viability, T/C [4] 41.1% | viability, T/C (second compound 0.1 µM, first compound 0.00316 µM) 79% | viability, T/C (second compound 0.1 µM, first compound 0.01 µM) 82.2% | viability, T/C [5] 72.6% | viability, T/C [6] 62.5% | viability, T/C [7] 48.2% | viability, T/C [8] 37.5% | viability, T/C (second compound 0.316 µM, first compound 0.00316 µM) 88% | viability, T/C (second compound 0.316 µM, first compound 0.01 µM) 72.3% | viability, T/C [9] 71.1% | viability, T/C [10] 56% | viability, T/C [11] 45.4% | viability, T/C [12] 41% | viability, T/C (second compound 1 µM, first compound 0.00316 µM) 96% | viability, T/C (second compound 1 µM, first compound 0.01 µM) 77.7% | viability, T/C [13] 49.5% | viability, T/C [14] 47.3% | viability, T/C [15] 58.2% | viability, T/C [16] 38.9% | viability, T/C (second compound 3.16 µM, first compound 0.00316 µM) 90.4% | viability, T/C (second compound 3.16 µM, first compound 0.01 µM) 86.4% | viability, T/C [17] 64.4% | viability, T/C [18] 50.6% | viability, T/C [19] 38.3% | viability, T/C [20] 39.2% | viability, T/C (second compound 10 µM, first compound 0.00316 µM) 98.3% | viability, T/C (second compound 10 µM, first compound 0.01 µM) 60.1% | viability, T/C [21] 57.8% | viability, T/C [22] 51% | viability, T/C [23] 46.8% | viability, T/C [24] 29.9%
7.05: pIC50 (second compound 3.16 µM)
7.51: pIC50 (second compound 1 µM)
6.57: pIC50 (second compound 0.1 µM)
6.45: pIC50 (second compound 0.0316 µM)
6.64: pIC50 (second compound 0.316 µM)
7.27: pIC50 (second compound 10 µM)

CCc1c2c(nc3ccc(O)cc13)-c1cc3c(c(=O)n1C2)COC(=O)[C@]3(O)CC + C=CC(=O)N1CCN(c2nc(OCC3CCCN3C)nc3c(F)c(-c4nc(N)cc(C)c4C(F)(F)F)c(Cl)cc23)C(C)C1
7.88: pIC50 (second compound 0.00316 µM)
7.78: pIC50 (second compound 0.316 µM)
7.95: pIC50 (second compound 0.0316 µM) | pIC50 (second compound 1 µM)
inactive: viability, T/C (second compound 0.00316 µM, first compound 0.000949 µM) 94.2% | viability, T/C (second compound 0.00316 µM, first compound 0.003 µM) 79.2% | viability, T/C (second compound 0.00316 µM, first compound 0.00949 µM) 58.4% | viability, T/C (second compound 0.00316 µM, first compound 0.03 µM) 31.9% | viability, T/C (second compound 0.00316 µM, first compound 0.0949 µM) 13.9% | viability, T/C (second compound 0.01 µM, first compound 0.000949 µM) 94% | viability, T/C (second compound 0.01 µM, first compound 0.003 µM) 82.6% | viability, T/C (second compound 0.01 µM, first compound 0.00949 µM) 60.6% | viability, T/C (second compound 0.01 µM, first compound 0.03 µM) 28.8% | viability, T/C (second compound 0.01 µM, first compound 0.0949 µM) 12.5% | viability, T/C (second compound 0.0316 µM, first compound 0.000949 µM) 84.8% | viability, T/C (second compound 0.0316 µM, first compound 0.003 µM) 97.8% | viability, T/C (second compound 0.0316 µM, first compound 0.00949 µM) 47.5% | viability, T/C (second compound 0.0316 µM, first compound 0.03 µM) 27.8% | viability, T/C (second compound 0.0316 µM, first compound 0.0949 µM) 10.9% | viability, T/C (second compound 0.1 µM, first compound 0.000949 µM) 81.3% | viability, T/C (second compound 0.1 µM, first compound 0.003 µM) 70.1% | viability, T/C (second compound 0.1 µM, first compound 0.00949 µM) 54.1% | viability, T/C (second compound 0.1 µM, first compound 0.03 µM) 34.5% | viability, T/C (second compound 0.1 µM, first compound 0.0949 µM) 11.2% | viability, T/C (second compound 0.316 µM, first compound 0.000949 µM) 92.8% | viability, T/C (second compound 0.316 µM, first compound 0.003 µM) 82.4% | viability, T/C (second compound 0.316 µM, first compound 0.00949 µM) 71.8% | viability, T/C (second compound 0.316 µM, first compound 0.03 µM) 27% | viability, T/C (second compound 0.316 µM, first compound 0.0949 µM) 14% | viability, T/C (second compound 1 µM, first compound 0.000949 µM) 95.9% | viability, T/C (second compound 1 µM, first compound 0.003 µM) 75% | viability, T/C (second compound 1 µM, first compound 0.00949 µM) 58.7% | viability, T/C (second compound 1 µM, first compound 0.03 µM) 22.7% | viability, T/C (second compound 1 µM, first compound 0.0949 µM) 10.5%
7.86: pIC50 (second compound 0.01 µM)
7.92: pIC50 (second compound 0.1 µM)
active: viability, T/C (second compound 0.00316 µM, first compound 0.3 µM) 6.54% | viability, T/C (second compound 0.01 µM, first compound 0.3 µM) 6.49% | viability, T/C (second compound 0.0316 µM, first compound 0.3 µM) 4.77% | viability, T/C (second compound 0.1 µM, first compound 0.3 µM) 6.91% | viability, T/C (second compound 0.316 µM, first compound 0.3 µM) 5.42% | viability, T/C (second compound 1 µM, first compound 0.3 µM) 6.39%

NC1c2ccccc2OC12CCN(c1cnc3c(N4CCCc5ncccc54)n[nH]c3n1)CC2 (stereo unspecified) + C#Cc1c(F)ccc2cc(O)cc(-c3ncc4c(N5CC6CCC(C5)N6)nc(OCC56CCCN5CC(F)C6)nc4c3F)c12
inactive: viability, T/C [1] 77% | viability, T/C [2] 79.1% | viability, T/C [3] 78.5% | viability, T/C [4] 77.6% | viability, T/C (second compound 0.0316 µM, first compound 3.16 µM) 75.3% | viability, T/C (second compound 0.0316 µM, first compound 10 µM) 62.4% | viability, T/C [5] 83% | viability, T/C [6] 82.9% | viability, T/C [7] 78.7% | viability, T/C [8] 76.2% | viability, T/C (second compound 0.1 µM, first compound 3.16 µM) 90.1% | viability, T/C (second compound 0.1 µM, first compound 10 µM) 62.5% | viability, T/C [9] 78.4% | viability, T/C [10] 82.8% | viability, T/C [11] 73.9% | viability, T/C [12] 72.6% | viability, T/C (second compound 0.316 µM, first compound 3.16 µM) 79.3% | viability, T/C (second compound 0.316 µM, first compound 10 µM) 58.8% | viability, T/C [13] 78.6% | viability, T/C [14] 74% | viability, T/C [15] 85.5% | viability, T/C [16] 80.6% | viability, T/C (second compound 1 µM, first compound 3.16 µM) 87.8% | viability, T/C (second compound 1 µM, first compound 10 µM) 70% | viability, T/C [17] 79.8% | viability, T/C [18] 68.9% | viability, T/C [19] 64.5% | viability, T/C [20] 82.8% | viability, T/C (second compound 3.16 µM, first compound 3.16 µM) 80.5% | viability, T/C (second compound 3.16 µM, first compound 10 µM) 61.3% | viability, T/C [21] 91.4% | viability, T/C [22] 79.2% | viability, T/C [23] 68.8% | viability, T/C [24] 67.2% | viability, T/C (second compound 10 µM, first compound 3.16 µM) 91.1% | viability, T/C (second compound 10 µM, first compound 10 µM) 64.5%
< 5.00: pIC50 (second compound 0.0316 µM) | pIC50 (second compound 0.1 µM) | pIC50 (second compound 0.316 µM) | pIC50 (second compound 1 µM) | pIC50 (second compound 3.16 µM) | pIC50 (second compound 10 µM)
